Measurements reported in patent US20060116390A1, “Hepatitis c virus inhibitors” (priority 2003, published 2006).
Read-outs that look alike come from different tables or passages of the source.

System: HCV proteins in Rep5.1 cells (replicon cell line)
Test: Inhibitory activity of HCV: cell-based ELISA in replicon cell line Rep5.1 (decrease of HCV proteins)
Parameters: species or system hepatitis C virus
Conditions: Rep5.1 cells, 72 hours with drug
How it was run: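 Rep5.1 replicon cells (5000/well, DMEM-10 with 500 μg/ml G418) were given serially diluted drug 4 h after seeding. After 72 h, cells were fixed in methanol/acetone and HCV proteins detected by cell-based ELISA using replicon-specific patient plasma antibodies. IC50 is the concentration giving 50% protein decrease versus the no-drug control.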

[1] = Hepatitis C virus, 72 h, concentration at which 50% of HCV proteins was decreased, Table 2, read-out: IC50
[2] = Hepatitis C virus, 72 h, decrease of HCV proteins measured by HCV antibody, Table 1, read-out: Level (IC50 values classified)
[3] = concentration at which 50% of HCV proteins was decreased, Table 2, read-out: IC50

SMILES	IC50 [1] [nM]	IC50 [2] [nM]	IC50 [3] [nM]
CC1=C(C(=O)O[C@H](C)c2ccccc2)CNC(=S)N1 [Compound 23, 6-methyl-2-thioxo-1,2,3,4-tetrahydro-pyrimidine-5-carboxylic acid (R)-1-phenyl-ethyl ester]	5400	1000 to 10000	–
CC#CCCOC(=O)C1=C(C)NC(=S)NC1 [Compound 160, 6-methyl-2-thioxo-1,2,3,4-tetrahydro-pyrimidine-5-carboxylic acid pent-3-inyl ester]	–	–	12000
CC1=C(C(=O)OCCc2ccsc2)C(c2ccccc2)NC(=S)N1 (stereo not drawn) [4′, 6-methyl-4-phenyl-2-thioxo-1,2,3,4-tetrahydro-pyrimidine-5-carboxylic acid 2-thiophen-3-yl-ethyl ester]	51000	> 20000	–
CC1=C(C(=O)OCCCc2ccccc2)C(CO)NC(=S)N1 (stereo not drawn) [14″, 4-hydroxymethyl-6-methyl-2-thioxo-1,2,3,4-tetrahydro-pyrimidine-5-carboxylic acid 3-phenyl-propyl ester]	2600	1000 to 10000	–
C#CCCCOC(=O)C1=C(C)NC(=S)NC1 [Compound 130, 6-methyl-2-thioxo-1,2,3,4-tetrahydro-pyrimidine-5-carboxylic acid pent-4-inyl ester]	–	–	35000
CC1=C(C(=O)OCCc2cc(C)cc(C)c2)C(CO)NC(=S)N1 (stereo not drawn) [37″, 4-hydroxymethyl-6-methyl-2-thioxo-1,2,3,4-tetrahydro-pyrimidine-5-carboxylic acid 2-(3,5-dimethyl-phenyl)-ethyl ester]	800	< 1000	–
CCc1ccc(CCOC(=O)C2=C(C)NC(=S)NC2)s1 [Compound 266, 6-methyl-2-thioxo-1,2,3,4-tetrahydro-pyrimidine-5-carboxylic acid 2-(5-ethyl-thiophen-2-yl)-ethyl ester]	600	< 1000	–
CC1=C(C(=O)OCCOC2CCc3ccccc32)CNC(=S)N1 (stereo not drawn) [Compound 125, 6-methyl-2-thioxo-1,2,3,4-tetrahydro-pyrimidine-5-carboxylic acid 2-(indan-1-yloxy)-ethyl ester]	2000	1000 to 10000	–
CC1=C(C(=O)OCC2CCC2)CNC(=S)N1 [Compound 80, 6-methyl-2-thioxo-1,2,3,4-tetrahydro-pyrimidine-5-carboxylic acid cyclobutylmethyl ester]	2300	1000 to 10000	–
CC1=C(C(=O)OCC#Cc2ccccc2)C(CF)NC(=S)N1 (stereo not drawn) [45′, 4-fluoromethyl-6-methyl-2-thioxo-1,2,3,4-tetrahydro-pyrimidine-5-carboxylic acid 3-phenyl-prop-2-inyl ester]	–	–	800
COc1cccc(COC(=O)C2=C(C)NC(=S)NC2)c1 [Compound 120, 6-methyl-2-thioxo-1,2,3,4-tetrahydro-pyrimidine-5-carboxylic acid 3-methoxy-benzyl ester]	1000	1000 to 10000	–
CC1=C(C(=O)OCc2cc3ccsc3s2)CNC(=S)N1 [Compound 235, 6-methyl-2-thioxo-1,2,3,4-tetrahydro-pyrimidine-5-carboxylic acid thieno[2,3-b]thiophen-2-ylmethyl ester]	900	< 1000	–
CC1=C(C(=O)OCCCc2cccs2)CNC(=S)N1 [9′, 6-methyl-2-thioxo-1,2,3,4-tetrahydro-pyrimidine-5-carboxylic acid 3-thiophen-2-yl-propyl ester]	< 400	< 1000	–
COc1ccc(COC(=O)C2=C(C)NC(=S)NC2)cc1 [Compound 8, 6-methyl-2-thioxo-1,2,3,4-tetrahydro-pyrimidine-5-carboxylic acid 4-methoxy-benzyl ester]	3000	1000 to 10000	–
CC1=C(C(=O)OCc2ccc(SC(F)(F)F)cc2)CNC(=S)N1 [Compound 199, 6-methyl-2-thioxo-1,2,3,4-tetrahydro-pyrimidine-5-carboxylic acid 4-trifluoromethylsulfanyl-benzyl ester]	< 400	< 1000	–
CC1=C(C(=O)OCc2ccccc2Cl)CNC(=S)N1 [Compound 84, 6-methyl-2-thioxo-1,2,3,4-tetrahydro-pyrimidine-5-carboxylic acid 2-chloro-benzyl ester]	< 400	< 1000	–
CCCCC(C)OC(=O)C1=C(C)NC(=S)NC1 (stereo not drawn) [Compound 39, 6-methyl-2-thioxo-1,2,3,4-tetrahydro-pyrimidine-5-carboxylic acid 1-methyl-pentyl ester]	500	< 1000	–
CCCOc1ccc(COC(=O)C2=C(C)NC(=S)NC2)cc1 [Compound 78, 6-methyl-2-thioxo-1,2,3,4-tetrahydro-pyrimidine-5-carboxylic acid 4-propoxy-benzyl ester]	1000	< 1000	–
CC1=C(C(=O)OC2CCc3c2csc3Cl)CNC(=S)N1 (stereo not drawn) [21′, 6-methyl-2-thioxo-1,2,3,4-tetrahydro-pyrimidine-5-carboxylic acid 1-chloro-5,6-dihydro-4H-cyclopenta[c]thiophen-4-yl ester]	400	< 1000	–
CC1=C(C(=O)OCCc2ccc(Cl)c(Cl)c2)C(CO)NC(=S)N1 (stereo not drawn) [42″, 4-hydroxymethyl-6-methyl-2-thioxo-1,2,3,4-tetrahydro-pyrimidine-5-carboxylic acid 2-(3,4-dichloro-phenyl)-ethyl ester]	< 400	< 1000	–
CC1=C(C(=O)OCCCc2cc3ccccc3s2)C(CF)NC(=S)N1 (stereo not drawn) [58′, 4-fluoromethyl-6-methyl-2-thioxo-1,2,3,4-tetrahydro-pyrimidine-5-carboxylic acid 3-benzo[b]thiophen-2-yl-propyl ester]	8000	1000 to 10000	–
CC1=C(C(=O)OCCCc2ccncc2)CNC(=S)N1 [Compound 13, 6-methyl-2-thioxo-1,2,3,4-tetrahydro-pyrimidine-5-carboxylic acid 3-pyridin-4-yl-propyl ester]	> 100000	> 20000	–
CC1=C(C(=O)OCc2ccn(S(=O)(=O)c3ccc(C)cc3)c2)CNC(=S)N1 [Compound 230, 6-methyl-2-thioxo-1,2,3,4-tetrahydro-pyrimidine-5-carboxylic acid 1-(toluene-4-sulfonyl)-1H-pyrrol-3-ylmethyl ester]	< 400	< 1000	–
COC(=O)CCCCCCCCCOC(=O)C1=C(C)NC(=S)NC1 [Compound 198, 6-methyl-2-thioxo-1,2,3,4-tetrahydro-pyrimidine-5-carboxylic acid 9-methoxycarbonyl-nonyl ester]	10000	1000 to 10000	–
CC1=C(C(=O)OCC=Cc2ccsc2)C(CF)NC(=S)N1 (stereo not drawn) [Compound 269, 4-fluoromethyl-6-methyl-2-thioxo-1,2,3,4-tetrahydro-pyrimidine-5-carboxylic acid 3-thiophen-3-yl-allyl ester]	5000	1000 to 10000	–
CC1=C(C(=O)OCc2ccc(-c3ccc([N+](=O)[O-])cc3)o2)CNC(=S)N1 [Compound 128, 6-methyl-2-thioxo-1,2,3,4-tetrahydro-pyrimidine-5-carboxylic acid 5-(4-nitro-phenyl)-furan-2-ylmethyl ester]	1000	< 1000	–
CC1=C(C(=O)OCCc2ccoc2)CNC(=S)N1 [Compound 254, 6-methyl-2-thioxo-1,2,3,4-tetrahydro-pyrimidine-5-carboxylic acid 2-furan-3-yl-ethyl ester]	3000	1000 to 10000	–
